Measured values: US20250130221A1, “METHOD OF IDENTIFYING AGENTS FOR THE TREATMENT OF CYSTIC FIBROSIS CAUSED BY THE MUTATION F508DEL” (FACULDADE DE CIÊNCIAS DA UNIVERSIDADE DE LISBOA, priority 2022, published 2025)

Key:
[1] = molecular target: T1, F508del-CFTR (Homo sapiens, UniProt P13569, DEL508-508); assay: Western blot of F508del-CFTR processing (bands B and C) in CFBE cells; format: cell-based; conditions: for F508del-CFTR band C rescue: CFBE cells stably expressing F508del-CFTR, vs DMSO, n=3; for additivity to CFTR correctors, bands C and B: 1 μM with VX-661 (5 μM), VX-445 (3 μM) or VX-661+VX-445, n=4; for CFTR processing [C/(B+C)]: dose-response 0-1 μM, proportional increase in band B
T1 construct: expressed in transfected cells; host or cells: CFBE41o- cells constitutively (stably) expressing F508del-CFTR

[2] = molecular target: T1, F508del-CFTR; assay: Halide-sensitive YFP fluorescence quenching in CFBE cells expressing F508del-CFTR; format: cell-based; conditions: for additivity to CFTR correctors, HS-YFP quenching rate (F508del-CFTR functional rescue): 1 μM with VX-661 (5 μM), VX-445 (3 μM) or VX-661+VX-445, n=4
Protocol: CFBE41o- cells constitutively co-expressing the HS-yellow fluorescent protein (HS-YFP) YFP-H148Q/I152L as well as wt- or F508del-CFTR (described in (Sondo et al., 2011)) were a kind gift from Dr Nicoletta Pedemonte (IRCCS Istituto G. Gaslini, Genoa, Italy). These cells were cultured in Minimum Essential Medium (MEM) supplemented with 10% FBS, 2 mM L-glutamine, puromycin 2 μg/ml and G418 […] (Sigma, #A1720) at 37° C. in 5% CO2.
This assay was used to assess whether the enhanced F508del-CFTR traffic recorded when the reporter cell line was transfected with confirmed hit siRNAs also corresponded to enhanced F508del-CFTR ionic transport function. As in the microscopy-based screens, a 72 h siRNA transfection time was selected. The assay followed a previously reported protocol (Sondo et al., 2011). CFBE cells co-expressing HS-YFP and wt- or F508del-CFTR were grown to confluency (37° C., 5% CO2) and split to 50% confluency. On the following day, the experiment was initiated by seeding cells onto siRNA-coated 96 well plates using a peristaltic pump (ThermoFisher Multidrop™ Combi). Each well was seeded with 10,000 cells. […] After the stimulation period, each plate was transferred to a fluorescence plate reader equipped with fast reagent injectors (Tecan Infinite F200 Pro) and excitation (BP 475-495 nm) and emission ([…]) filters suitable for YFP fluorescence. Each assay consisted of a continuous 16 s fluorescence reading with 2 s before and 14 s after injection of 160 μl of a PBS where Cl^− had been replaced by I^− (final I^− concentration in the well: 100 mM). The pH of all PBS-containing solutions was rigorously set at pH 7.4 immediately before use to avoid artifacts in the fluorescence reading. The resulting kinetics was background subtracted and normalized to the pre-injection fluorescence value. To determine the fluorescence quenching rate associated with I^− influx, the final 14 s of the kinetics in each well were fitted with a single decay exponential curve and the derivative at the injection time (i.e. the quenching rate) was extracted from the curve parameters. […]

[3] = system: CFBE cells expressing F508del-CFTR; assay: Cellular toxicity in CFBE cells during dose-response WB assay; format: cell-based, human; conditions: concentrations higher than 1 μM
[4] = system: GRK5; conditions: covalent binding; cited from earlier work
[5] = molecular target: T2, GRK2 (Homo sapiens, UniProt P25098); conditions: GRK5 over GRK2; cited from earlier work
T2 sequence (P25098 1-689): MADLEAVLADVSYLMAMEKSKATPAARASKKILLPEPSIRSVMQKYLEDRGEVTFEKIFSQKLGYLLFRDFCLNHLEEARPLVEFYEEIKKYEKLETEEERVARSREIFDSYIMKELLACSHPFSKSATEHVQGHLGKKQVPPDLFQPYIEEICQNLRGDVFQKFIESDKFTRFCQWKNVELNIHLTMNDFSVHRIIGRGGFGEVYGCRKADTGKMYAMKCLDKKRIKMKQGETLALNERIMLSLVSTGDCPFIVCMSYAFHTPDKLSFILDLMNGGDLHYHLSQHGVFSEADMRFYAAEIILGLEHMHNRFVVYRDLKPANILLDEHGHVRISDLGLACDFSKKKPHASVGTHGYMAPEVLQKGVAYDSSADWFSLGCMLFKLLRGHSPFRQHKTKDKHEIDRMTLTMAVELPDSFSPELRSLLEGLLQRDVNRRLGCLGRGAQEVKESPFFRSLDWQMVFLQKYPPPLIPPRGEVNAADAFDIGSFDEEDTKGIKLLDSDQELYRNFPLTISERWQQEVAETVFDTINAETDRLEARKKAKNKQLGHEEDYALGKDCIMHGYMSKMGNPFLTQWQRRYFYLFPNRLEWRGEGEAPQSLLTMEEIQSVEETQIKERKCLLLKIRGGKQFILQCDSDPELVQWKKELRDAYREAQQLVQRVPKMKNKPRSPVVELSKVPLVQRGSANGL

[6] = system: GRK2; conditions: cited from earlier work
[7] = molecular target: T3, GRK1 (Bos taurus, UniProt P28327); conditions: cited from earlier work
T3 sequence (P28327 1-561): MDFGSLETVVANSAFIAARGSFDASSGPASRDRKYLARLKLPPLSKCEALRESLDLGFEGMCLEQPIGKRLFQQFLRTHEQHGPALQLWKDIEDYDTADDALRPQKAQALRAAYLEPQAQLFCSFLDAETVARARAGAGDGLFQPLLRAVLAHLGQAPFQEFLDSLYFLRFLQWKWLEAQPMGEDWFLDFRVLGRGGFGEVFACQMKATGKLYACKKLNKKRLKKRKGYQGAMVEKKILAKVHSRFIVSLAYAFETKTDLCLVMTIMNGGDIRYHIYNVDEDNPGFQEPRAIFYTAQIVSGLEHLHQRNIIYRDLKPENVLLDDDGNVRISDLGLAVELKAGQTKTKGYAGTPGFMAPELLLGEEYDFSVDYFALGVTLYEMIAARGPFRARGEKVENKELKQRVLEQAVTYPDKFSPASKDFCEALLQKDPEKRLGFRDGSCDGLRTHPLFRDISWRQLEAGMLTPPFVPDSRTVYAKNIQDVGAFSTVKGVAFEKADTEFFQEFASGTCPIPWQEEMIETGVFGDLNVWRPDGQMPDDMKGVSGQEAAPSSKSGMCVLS

[8] = system: PKA; conditions: statement in words; cited from earlier work
[9] = listed as (R,Z)-3-((4-(2-Bromoacetamido)-3,5-dimethyl-1H-pyrrol-2-yl)-methylene)-2-oxo-N-

T1 sequence (P13569 with tags, fused parts or gaps DEL508-508): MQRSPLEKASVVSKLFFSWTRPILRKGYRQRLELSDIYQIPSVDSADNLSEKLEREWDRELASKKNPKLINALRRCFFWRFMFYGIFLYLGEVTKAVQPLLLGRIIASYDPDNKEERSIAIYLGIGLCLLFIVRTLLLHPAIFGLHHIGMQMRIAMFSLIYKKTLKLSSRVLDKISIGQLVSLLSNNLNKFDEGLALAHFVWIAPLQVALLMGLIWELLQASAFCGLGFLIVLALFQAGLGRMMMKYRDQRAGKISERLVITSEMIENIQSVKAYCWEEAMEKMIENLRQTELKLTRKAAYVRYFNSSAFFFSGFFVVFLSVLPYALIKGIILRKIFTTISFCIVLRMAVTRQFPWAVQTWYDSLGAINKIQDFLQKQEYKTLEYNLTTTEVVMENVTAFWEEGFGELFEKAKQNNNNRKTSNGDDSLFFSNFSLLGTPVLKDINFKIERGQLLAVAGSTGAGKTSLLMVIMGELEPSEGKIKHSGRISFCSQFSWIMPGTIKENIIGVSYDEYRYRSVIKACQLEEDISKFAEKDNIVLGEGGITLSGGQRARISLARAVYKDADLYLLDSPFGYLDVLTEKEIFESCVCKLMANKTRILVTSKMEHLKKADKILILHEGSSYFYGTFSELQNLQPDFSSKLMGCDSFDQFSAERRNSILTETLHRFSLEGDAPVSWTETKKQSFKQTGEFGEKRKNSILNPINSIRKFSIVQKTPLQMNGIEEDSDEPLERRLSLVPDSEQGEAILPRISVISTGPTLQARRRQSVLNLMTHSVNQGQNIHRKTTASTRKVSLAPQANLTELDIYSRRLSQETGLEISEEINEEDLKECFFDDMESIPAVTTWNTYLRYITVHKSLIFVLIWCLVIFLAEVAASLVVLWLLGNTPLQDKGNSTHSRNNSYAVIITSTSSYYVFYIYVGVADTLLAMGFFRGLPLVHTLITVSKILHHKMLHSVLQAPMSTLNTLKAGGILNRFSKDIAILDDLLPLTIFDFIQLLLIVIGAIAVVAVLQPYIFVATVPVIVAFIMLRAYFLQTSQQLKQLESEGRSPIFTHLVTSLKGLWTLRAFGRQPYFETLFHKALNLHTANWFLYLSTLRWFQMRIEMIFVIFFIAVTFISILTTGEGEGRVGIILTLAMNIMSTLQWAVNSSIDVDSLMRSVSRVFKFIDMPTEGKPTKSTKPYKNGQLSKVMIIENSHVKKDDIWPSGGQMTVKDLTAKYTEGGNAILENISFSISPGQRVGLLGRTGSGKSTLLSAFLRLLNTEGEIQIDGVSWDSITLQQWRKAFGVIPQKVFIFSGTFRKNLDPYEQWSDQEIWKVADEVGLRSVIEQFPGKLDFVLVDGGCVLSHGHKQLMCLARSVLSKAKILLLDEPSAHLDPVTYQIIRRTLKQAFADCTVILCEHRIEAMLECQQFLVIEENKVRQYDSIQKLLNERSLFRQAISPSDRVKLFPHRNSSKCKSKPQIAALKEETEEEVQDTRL

Cc1[nH]c(/C=C2\C(=O)Nc3ccc(C(=O)N[C@H](C)c4ccccc4)cc32)c(C)c1NC(=O)CBr [9 g, (R,Z)-3-((4-(2-Bromoacetamido)-3,5-dimethyl-1H-pyrrol-2-yl)-methylene)-2-oxo-N-(1-phenylethyl)indoline-5-carboxamide]
F508del-CFTR band C rescue ([1]; 0.3 μM): Statistically significant band C rescue | F508del-CFTR band C rescue ([1]; 0.3 μM, listed as (R,Z)-3-((4-(2-Bromoacetamido)-3,5-dimethyl-1H-pyrrol-2-yl)-methylene)-2-oxo-N-): statistically significant band C rescue | additivity to CFTR correctors, bands C and B [1]: additive to all corrector treatments regarding bands C and B | additivity to CFTR correctors, bands C and B [1, 9]: additivity | F508del-CFTR band C rescue ([1]; 1.0 μM): Statistically significant band C rescue | F508del-CFTR band C rescue ([1]; 1.0 μM, listed as (R,Z)-3-((4-(2-Bromoacetamido)-3,5-dimethyl-1H-pyrrol-2-yl)-methylene)-2-oxo-N-): statistically significant band C rescue | band C rescue relative to VX-661 ([1]; at 0.3 and 1.0 μM): 50 % of VX-661 | CFTR processing [C/(B+C)] [1]: not significantly changed | CFTR processing [C/(B+C)] [1, 9]: without improved CFTR processing | F508del-CFTR processing rescue ([1]; low micromolar concentrations): significant F508del-CFTR processing and function rescue | additivity of rescue to correctors (summary statement) ([1]; low micromolar concentrations, VX-809, VX-445 and VX-661): additive to VX-809, VX-445 and VX-661 | additivity to CFTR correctors, HS-YFP quenching rate (F508del-CFTR functional rescue) [2]: additive to all corrector treatments regarding F508del-CFTR functional rescue | additivity to CFTR correctors, HS-YFP quenching rate (F508del-CFTR functional rescue) [2, 9]: additivity in all conditions | F508del-CFTR function rescue ([2]; low micromolar concentrations): significant F508del-CFTR processing and function rescue | cellular toxicity [3]: cellular toxicity | IC50 [4]: 8.6 nM | selectivity against GRK2 [5]: 1400 fold

CC1=C(C(=O)Nc2ccc3[nH]ncc3c2)C(c2ccc(F)c(C(=O)NCc3ccccn3)c2)NC(=O)N1 (stereo not drawn) [CCG215022]
IC50 [6]: 150 ± 70 nM | IC50 [7]: 3900 ± 1000 nM | effect on GRK1 ([7]; statement in words): does not affect | effect on PKA [8]: does not affect
